This passage reports IC50 results from BindingDB's records for doi:10.1124/mol.107.035832 (Nih, 2007).

A word on the IC50: it is the concentration that gives 50% inhibition. A high value points to weaker potency in that assay.

In test [1] the target is T1, Serine/threonine-protein kinase Chk2 [209-531,Q209M] (Homo sapiens, UniProt O96017, Q209M).
T1 construct: 209-531
Nature of the test: IMAP High-Throughput Screening. The conditions noted are these: pH 7.2; 23 °C. How it is done:
The IMAP Screening Express Kit (Molecular Devices, Sunnyvale, CA) was used for the high-throughput screening experiments. Compounds from the Developmental Therapeutics Program (DTP) Open Repository were solubilized and diluted in DMSO and initially tested at one concentration in the assay. Active compounds were subsequently titrated at 20 2-fold dilutions. Reactions were performed using recombinant Chk2 with the indicated drug concentrations in reaction buffer in 384-well black microplate (Greiner Bio-One, Longwood, FL)] for 60 min at room temperature. IMAP binding reagent was added to each well, plates were incubated for 30 min at room temperature, and fluorescence polarization was measured using a Tecan Ultra plate reader. Each screening plate contained staurosporine as a positive control.

Test [2] concerns the target T1, Serine/threonine-protein kinase Chk2 [209-531,Q209M]. The test can be described thus: In Vitro Protein Kinase Assay. The conditions noted are these: pH 7.5; 30 °C. The procedure: Recombinant Chk2 was incubated with either histone H1 (or GST-Cdc25C) in reaction buffer, and incubated at 30 deg C for indicated times. For the drug inhibition experiments, samples were coincubated with drug during the reactions. Reactions were stopped by adding sample buffer, and samples were boiled for 5 min. Reaction products were separated by 4-20% SDS-PAGE. Chk2 protein kinase activity, measured as 32P incorporation into Chk2, histone H1 (or GST-Cdc25C), was determined using a PhosphorImager (GE Healthcare, Chalfont St. Giles, Buckinghamshire, UK). Densitometry was performed using Image-Quant.

T1 sequence (O96017 209-531 Q209M): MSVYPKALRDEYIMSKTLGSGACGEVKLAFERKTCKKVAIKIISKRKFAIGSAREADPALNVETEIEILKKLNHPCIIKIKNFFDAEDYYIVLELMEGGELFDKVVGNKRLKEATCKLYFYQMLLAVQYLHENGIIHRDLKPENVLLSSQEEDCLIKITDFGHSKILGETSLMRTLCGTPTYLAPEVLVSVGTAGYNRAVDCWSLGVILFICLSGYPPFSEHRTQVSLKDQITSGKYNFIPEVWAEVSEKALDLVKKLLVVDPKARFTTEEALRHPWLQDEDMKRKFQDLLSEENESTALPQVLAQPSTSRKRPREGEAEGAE

Compound `CC(=NN=C(N)N)c1cccc(NC(=S)Nc2cccc(C(C)=NN=C(N)N)c2)c1` [NSC 177941] showed an IC50 in test [1] above 20 µM.

In turn, `CC(C=NNC(=N)N)=NNC(=N)N` [NSC 69432 (MGBG)] displayed an IC50 in test [1] above 20 µM.

Compound `CC(=NN=C(N)N)c1ccc(C(C)=NN=C(N)N)cc1` [NSC 67931] had a half-inhibitory concentration (IC50) in test [1] above 20 µM. Regarding `CC(=NN=C(N)N)c1ccc(NC(=S)Nc2ccccc2)cc1` [NSC 177940], the IC50 in test [1] was above 20 µM. Regarding `CC(=NN=C(N)N)c1ccc(NC(=O)Nc2ccc(C(C)=NN=C(N)N)cc2)cc1` [diacetyldiphenylurea bisguanylhydrazone], the IC50 in test [1] turned out to be 0.2 µM; in test [2], 0.24 µM. In the case of `NC1=NC(=O)C(=C2CCNC(=O)c3[nH]ccc32)N1` [B722657K110], half-maximal inhibition in test [2] (IC50) was put at 0.42 µM.

`CC(=NN=C(N)N)c1cccc(NC(=O)Nc2cccc(C(C)=NN=C(N)N)c2)c1` [NSC 177944] yielded an IC50 in test [1] above 20 µM. The same measure, in the same setting: for `CNC(=O)Nc1ccc(C(C)=NNC(N)=S)cc1` [NSC 377844] the value was above 20 µM.
